Reference: publication PMC8185074, “Anchor extension: a structure-guided approach to design cyclic peptides targeting enzyme active sites” (Nature Communications, 2021)
“Also recorded” adds a separate entry of the source.

Key:
[1] = target: T1, HDAC7 (Homo sapiens, UniProt Q8WUI4); assay: HDAC7 profiling of SHA anchor and early peptides; format: biochemical
T1 sequence (Q8WUI4 1-952): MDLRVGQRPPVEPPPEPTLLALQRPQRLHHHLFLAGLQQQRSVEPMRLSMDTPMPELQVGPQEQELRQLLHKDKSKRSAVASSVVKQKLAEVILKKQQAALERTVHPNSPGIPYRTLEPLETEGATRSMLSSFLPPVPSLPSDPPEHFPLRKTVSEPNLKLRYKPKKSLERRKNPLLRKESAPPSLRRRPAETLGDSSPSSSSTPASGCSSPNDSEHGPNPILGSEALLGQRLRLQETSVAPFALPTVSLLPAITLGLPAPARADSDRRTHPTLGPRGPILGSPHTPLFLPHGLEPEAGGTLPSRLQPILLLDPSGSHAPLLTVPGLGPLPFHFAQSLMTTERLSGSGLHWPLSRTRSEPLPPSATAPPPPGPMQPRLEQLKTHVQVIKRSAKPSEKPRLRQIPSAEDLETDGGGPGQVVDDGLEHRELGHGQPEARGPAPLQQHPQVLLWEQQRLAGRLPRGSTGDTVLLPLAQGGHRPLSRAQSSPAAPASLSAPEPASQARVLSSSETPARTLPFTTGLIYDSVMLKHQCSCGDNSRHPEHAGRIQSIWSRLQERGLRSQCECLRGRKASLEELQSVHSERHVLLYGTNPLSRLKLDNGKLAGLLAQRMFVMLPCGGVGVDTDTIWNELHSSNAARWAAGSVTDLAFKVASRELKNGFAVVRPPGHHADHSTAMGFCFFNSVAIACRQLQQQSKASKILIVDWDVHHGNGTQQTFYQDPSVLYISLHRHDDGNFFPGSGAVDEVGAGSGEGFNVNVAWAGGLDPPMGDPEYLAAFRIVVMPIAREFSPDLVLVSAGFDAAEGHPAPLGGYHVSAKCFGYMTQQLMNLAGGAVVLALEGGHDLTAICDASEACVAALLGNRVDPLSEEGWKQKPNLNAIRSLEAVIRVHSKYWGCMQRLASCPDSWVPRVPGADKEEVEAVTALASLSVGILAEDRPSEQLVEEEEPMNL

[2] = target: T2, HDAC10 (Homo sapiens, UniProt Q969S8); assay: HDAC10 profiling of SHA anchor; format: biochemical
T2 sequence (Q969S8 1-669): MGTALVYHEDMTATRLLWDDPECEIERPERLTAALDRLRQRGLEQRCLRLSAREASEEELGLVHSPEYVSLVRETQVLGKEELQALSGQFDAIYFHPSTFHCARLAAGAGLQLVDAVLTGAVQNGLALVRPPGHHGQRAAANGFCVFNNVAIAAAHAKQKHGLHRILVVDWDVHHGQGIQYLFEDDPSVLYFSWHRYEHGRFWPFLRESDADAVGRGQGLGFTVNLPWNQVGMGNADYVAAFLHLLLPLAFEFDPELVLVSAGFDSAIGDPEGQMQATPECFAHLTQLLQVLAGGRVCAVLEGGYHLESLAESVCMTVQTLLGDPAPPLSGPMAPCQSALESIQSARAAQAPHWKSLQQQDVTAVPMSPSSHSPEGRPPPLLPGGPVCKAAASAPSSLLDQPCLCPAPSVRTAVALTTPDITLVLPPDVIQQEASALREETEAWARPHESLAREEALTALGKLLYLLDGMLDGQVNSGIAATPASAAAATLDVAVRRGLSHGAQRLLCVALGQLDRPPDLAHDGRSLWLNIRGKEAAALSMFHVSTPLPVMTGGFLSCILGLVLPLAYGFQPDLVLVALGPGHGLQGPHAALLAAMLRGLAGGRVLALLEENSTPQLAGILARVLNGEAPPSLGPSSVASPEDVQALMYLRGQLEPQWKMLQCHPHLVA
From the text: Supplement 41467_2021_23609_MOESM7_ESM.zip/HDACActivity_RawData.xlsx, sheet "SHA" | column: HDAC10

## N[C@@H](CCCCCS)C(=O)O [SHA, 2S-2-amino-7-sulfanylheptanoic acid]
[1]
  binding to HDAC7: not detected binding; also recorded: no binding
[1]; Conc. 1.00E-05 M
  HDAC7 raw activity signal: 490633
[1]; Conc. 1.11E-06 M
  HDAC7 raw activity signal: 609377
[1]; Conc. 1.23E-07 M
  HDAC7 raw activity signal: 577915
[1]; Conc. 1.37E-08 M
  HDAC7 raw activity signal: 439997
[1]; Conc. 1.52E-09 M
  HDAC7 raw activity signal: 431089
[1]; Conc. 3.33E-06 M
  HDAC7 raw activity signal: 551905
[1]; Conc. 3.70E-07 M
  HDAC7 raw activity signal: 580293
[1]; Conc. 4.12E-08 M
  HDAC7 raw activity signal: 536345
[1]; Conc. 4.57E-09 M
  HDAC7 raw activity signal: 413084
[1]; Conc. 5.08E-10 M
  HDAC7 raw activity signal: 366480
[2]; Conc. 1.00E-05 M
  HDAC10 raw activity signal: 78535
[2]; Conc. 1.11E-06 M
  HDAC10 raw activity signal: 200617
[2]; Conc. 1.23E-07 M
  HDAC10 raw activity signal: 227566
[2]; Conc. 1.37E-08 M
  HDAC10 raw activity signal: 231393
[2]; Conc. 1.52E-09 M
  HDAC10 raw activity signal: 230961
[2]; Conc. 3.33E-06 M
  HDAC10 raw activity signal: 158362
[2]; Conc. 3.70E-07 M
  HDAC10 raw activity signal: 217828
[2]; Conc. 4.12E-08 M
  HDAC10 raw activity signal: 237632
[2]; Conc. 4.57E-09 M
  HDAC10 raw activity signal: 278288
[2]; Conc. 5.08E-10 M
  HDAC10 raw activity signal: 236379
